Columns and labels:
Assay type in all cases: cell-based
Klebsiella pneumonia = assay: MIC against Gram-negative bacteria: Klebsiella pneumonia
Summary of the method: (§1)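 Inocula prepared by growing LB cultures at 37° C to 0.5 McFarland, centrifuging at 4000×g, and resuspending in fresh medium. Final density 5×10^5 CFU/mL per well with two-fold dilutions of purified EGF domain protein; shaking incubation at 37° C.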

Enterobacter cloacae = assay: MIC against Gram-negative bacteria: Enterobacter cloacae
Summary of the method: as §1

Proteus vulgaris = assay: MIC against Gram-negative bacteria: Proteus vulgaris
Summary of the method: as §1

Pseudomonas aeruginosa = assay: MIC against Gram-negative bacteria: Pseudomonas aeruginosa
Summary of the method: as §1

Citrobacter diversus = assay: MIC against Gram-negative bacteria: Citrobacter diversus
Summary of the method: as §1

E. coli BL21 = assay: MIC against Gram-negative bacteria: E. coli BL21
Summary of the method: as §1

Moraxella catarrhalis = assay: MIC against Gram-negative bacteria: Moraxella catarrhalis
Summary of the method: as §1

E. coli DH5α = assay: Antibacterial activity: MIC and growth curve against E. coli DH5α in 96-well plate; details: minimal inhibitory concentration against E. coli DH5α; 96-well plate, 5×10^5 CFU/mL, 37° C., judged after 8 h
Summary of the method: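 MIC taken as lowest protein level with no bacterial growth, tracked by A600 every 30 min during 37 °C, 175 rpm culture. Two-fold protein series 50-12.5 μg/mL final, triplicate wells, against 5×10^5 CFU/mL of LB-washed mid-log cells.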

Proteus mirabilis = assay: MIC against Gram-negative bacteria: Proteus mirabilis
Summary of the method: as §1

Serratia marcescens = assay: MIC against Gram-negative bacteria: Serratia marcescens
Summary of the method: as §1

Aeromonas hydrophila = assay: MIC against Gram-negative bacteria: Aeromonas hydrophila
Summary of the method: as §1

[1] = 96-well plate, 5×10^5 CFU/mL, 37° C., 10 h
[2] = 10 h cultivation at 37° C., 5×10^5 CFU/mL, two-fold serial dilution

PRT689 (DNDECADEEPACEGGRCVNTVGSYHCTCEPPLVLDGSQRRCV; listed as Homo sapiens)
MIC K. pneumonia (Klebsiella pneumonia; [1]): 12.5 µg/mL
MIC E. cloacae (Enterobacter cloacae; [1]): 25 µg/mL
MIC P. vulgaris (Proteus vulgaris; [1]): 12.5 µg/mL
MIC P. aeruginosa (Pseudomonas aeruginosa; [1]): 50 µg/mL
MIC C. diversus (Citrobacter diversus; [1]): 12.5 µg/mL
MIC E. coli BL21 (E. coli BL21; [1]): 25 µg/mL
MIC M. catarrhalis (Moraxella catarrhalis; [1]): 50 µg/mL
MIC (E. coli DH5α): 100 µg/mL
MIC P. mirabilis (Proteus mirabilis; [1]): 25 µg/mL
MIC S. marcescens (Serratia marcescens; [1]): 25 µg/mL
MIC A. hydrophila (Aeromonas hydrophila; [1]): 50 µg/mL

PRT903 (DINECASDPCRNGANCTDCVDSYTCTCPAGFSGIHCE; listed as Homo sapiens)
MIC (Klebsiella pneumonia; K. pneumonia, 10 h cultivation at 37° C.): 25 µg/mL
MIC (Enterobacter cloacae; E. cloacae, 10 h cultivation at 37° C.): 50 µg/mL
MIC (Proteus vulgaris; P. vulgaris, 10 h cultivation at 37° C.): 50 µg/mL
MIC (Pseudomonas aeruginosa; P. aeruginosa, 10 h cultivation at 37° C.): 12.5 µg/mL
MIC (Citrobacter diversus; C. diversus, 10 h cultivation at 37° C.): 50 µg/mL
MIC (E. coli BL21; E. coli BL21, 10 h cultivation at 37° C.): 50 µg/mL
MIC (Moraxella catarrhalis; M. catarrhalis, 10 h cultivation at 37° C.): 12.5 µg/mL
MIC (E. coli DH5α): 12.5 µg/mL
MIC (Proteus mirabilis; P. mirabilis, 10 h cultivation at 37° C.): 25 µg/mL
MIC (Serratia marcescens; S. marcescens, 10 h cultivation at 37° C.): 12.5 µg/mL
MIC (Aeromonas hydrophila; A. hydrophila, 10 h cultivation at 37° C.): 12.5 µg/mL

PRT547 (CQCHGHSDRCLPGSGVCVDCQHNTEGAHCERCQAGFVSSRDDPSAPCVS; listed as Homo sapiens)
MIC against K. pneumonia (Klebsiella pneumonia; [1]): 50 µg/mL
MIC against E. cloacae (Enterobacter cloacae; [1]): 25 µg/mL
MIC against P. vulgaris (Proteus vulgaris; [1]): 12.5 µg/mL
MIC against P. aeruginosa (Pseudomonas aeruginosa; [1]): 25 µg/mL
MIC against C. diversus (Citrobacter diversus; [1]): 25 µg/mL
MIC against E. coli BL21 (E. coli BL21; [1]): 12.5 µg/mL
MIC against M. catarrhalis (Moraxella catarrhalis; [1]): 50 µg/mL
MIC (E. coli DH5α): 25 µg/mL
MIC against P. mirabilis (Proteus mirabilis; [1]): 25 µg/mL
MIC against S. marcescens (Serratia marcescens; [1]): 25 µg/mL
MIC against A. hydrophila (Aeromonas hydrophila; [1]): 12.5 µg/mL

PRT1179 (DIDECASNPCLNGGHCQNEINRFQCLCPTGFSGNLCQ; listed as Homo sapiens)
MIC K. pneumonia (Klebsiella pneumonia; [2]): 12.5 µg/mL
MIC E. cloacae (Enterobacter cloacae; [2]): 50 µg/mL
MIC P. vulgaris (Proteus vulgaris; [2]): 25 µg/mL
MIC P. aeruginosa (Pseudomonas aeruginosa; [2]): 25 µg/mL
MIC C. diversus (Citrobacter diversus; [2]): 12.5 µg/mL
MIC E. coli BL21 (E. coli BL21; [2]): 50 µg/mL
MIC M. catarrhalis (Moraxella catarrhalis; [2]): 25 µg/mL
MIC (E. coli DH5α): 12.5 µg/mL
MIC P. mirabilis (Proteus mirabilis; [2]): 50 µg/mL
MIC S. marcescens (Serratia marcescens; [2]): 12.5 µg/mL
MIC A. hydrophila (Aeromonas hydrophila; [2]): 25 µg/mL

PRT530 (CSCDPEHADGCEQGSGRCHCKPNFHGDNCEKCAIGYYNFPFCLR; listed as Homo sapiens)
MIC against K. pneumonia (Klebsiella pneumonia; [1]): 50 µg/mL
MIC against E. cloacae (Enterobacter cloacae; [1]): 25 µg/mL
MIC against P. vulgaris (Proteus vulgaris; [1]): 12.5 µg/mL
MIC against P. aeruginosa (Pseudomonas aeruginosa; [1]): 25 µg/mL
MIC against C. diversus (Citrobacter diversus; [1]): 25 µg/mL
MIC against E. coli BL21 (E. coli BL21; [1]): 12.5 µg/mL
MIC against M. catarrhalis (Moraxella catarrhalis; [1]): 50 µg/mL
MIC (E. coli DH5α): 50 µg/mL
MIC against P. mirabilis (Proteus mirabilis; [1]): 25 µg/mL
MIC against S. marcescens (Serratia marcescens; [1]): 25 µg/mL
MIC against A. hydrophila (Aeromonas hydrophila; [1]): 12.5 µg/mL

PRT192 (CPGSGERRICSHHGVCSNEGKCICQPDWTGKDC; listed as Homo sapiens)
MIC (μg/mL) K. pneumonia (Klebsiella pneumonia; K. pneumonia, 10 h cultivation at 37° C., 5×10^5 CFU/mL): 12.5 µg/mL
MIC (μg/mL) E. cloacae (Enterobacter cloacae; E. cloacae, 10 h cultivation at 37° C., 5×10^5 CFU/mL): 25 µg/mL
MIC (μg/mL) P. vulgaris (Proteus vulgaris; P. vulgaris, 10 h cultivation at 37° C., 5×10^5 CFU/mL): 50 µg/mL
MIC (μg/mL) P. aeruginosa (Pseudomonas aeruginosa; P. aeruginosa, 10 h cultivation at 37° C., 5×10^5 CFU/mL): 25 µg/mL
MIC (μg/mL) C. diversus (Citrobacter diversus; C. diversus, 10 h cultivation at 37° C., 5×10^5 CFU/mL): 25 µg/mL
MIC (μg/mL) E. coli BL21 (E. coli BL21; E. coli BL21, 10 h cultivation at 37° C., 5×10^5 CFU/mL): 50 µg/mL
MIC (μg/mL) M. catarrhalis (Moraxella catarrhalis; M. catarrhalis, 10 h cultivation at 37° C., 5×10^5 CFU/mL): 12.5 µg/mL
MIC (E. coli DH5α): 25 µg/mL
MIC (μg/mL) P. mirabilis (Proteus mirabilis; P. mirabilis, 10 h cultivation at 37° C., 5×10^5 CFU/mL): 25 µg/mL
MIC (μg/mL) S. marcescens (Serratia marcescens; S. marcescens, 10 h cultivation at 37° C., 5×10^5 CFU/mL): 12.5 µg/mL
MIC (μg/mL) A. hydrophila (Aeromonas hydrophila; A. hydrophila, 10 h cultivation at 37° C., 5×10^5 CFU/mL): 50 µg/mL

PRT518 (CACPLNIPSNNFSPTCHLDRSLGLICDGCPVGYTGPRCERCAEGYFGQPSVPGGSCQP; listed as Homo sapiens)
MIC against K. pneumonia (Klebsiella pneumonia; [1]): 25 µg/mL
MIC against E. cloacae (Enterobacter cloacae; [1]): 50 µg/mL
MIC against P. vulgaris (Proteus vulgaris; [1]): 25 µg/mL
MIC against P. aeruginosa (Pseudomonas aeruginosa; [1]): 12.5 µg/mL
MIC against C. diversus (Citrobacter diversus; [1]): 12.5 µg/mL
MIC against E. coli BL21 (E. coli BL21; [1]): 25 µg/mL
MIC against M. catarrhalis (Moraxella catarrhalis; [1]): 25 µg/mL
MIC (E. coli DH5α): 50 µg/mL
MIC against P. mirabilis (Proteus mirabilis; [1]): 12.5 µg/mL
MIC against S. marcescens (Serratia marcescens; [1]): 12.5 µg/mL
MIC against A. hydrophila (Aeromonas hydrophila; [1]): 25 µg/mL

From patent US9833497B2, “Human originated EGF domain proteins and use of the same” (CHENGDU SOURCEBIO LIMITED-LIABILITY COMPANY, priority 2013, dated 2017)
